Entries after “also recorded” stand apart in the source; their conditions may differ.
Experiments:
plasma Aβ42 = test: Phase II clinical trial: plasma Aβ42; assay type: in vivo, human
Procedure: (§1) Screening procedures consisted of a full medical history, full physical, neurological and ophthalmic examination, blood and urine tests and psychometric tests (ADAS-Cog, MMSE) to confirm the patient's eligibility for the study. Nerve conduction tests and visual evoked responses were conducted between the screening and baseline visits to provide a baseline measurement and to exclude patients with undiagnosed peripheral neuropathies or visual disturbances. Blood was collected for ApoE allotyping and determination of baseline plasma levels of CQ, metals and Aβ prior to randomization.
(§2) The primary efficacy variable was a change in the baseline score on the AD Assessment Scale (ADAS), which was conducted at baseline and at weeks 4, 12, 24 and 36. This readout was chosen for comparability of treatment effects with current therapeutic agents, such as donepezil, for which efficacy trials also used ADAS as their primary outcome measure (Rogers et al., Neurology 50: 136-145, 1998). Although numerous neuropsychological tests could be considered as secondary measures, it was necessary to avoid fatiguing the subjects at review. Therefore the only other cognitive test performed was the Mini-Mental State Exam (MMSE), which is well characterized and easily implemented. […]

plasma Aβ40 = test: Phase II clinical trial: plasma Aβ40; assay type: in vivo, human
Procedure: as §1, §2

Aβ accumulation = conditions: cited from earlier work
[1] = Nerve conduction studies (peripheral nerve latency) in the Phase II trial; assay type: in vivo, human
Procedure: as §1
(§3) Standard adverse event reporting to a safety monitoring committee, consisting of physicians independent of the study, was conducted to review adverse events at three monthly intervals and on an emergent basis. Following baseline, safety visits were conducted at weeks 2, 4, 8, 12, 16, 20, 24, 26, 28, 32 and 36. The patient and carer were questioned about any changes which might have occurred in the patient's health or medications since the last visit. Standard biochemical, renal and liver function, full blood examination, serum vitamin B12 and folate levels, blood pressure and weight were documented at each visit. A neurological examination was conducted at each visit to assess for peripheral neuropathy and optic neuropathy, and visual evoked responses, nerve conduction studies and a full ophthalmic examination (visual acuity, colour vision, fundal examination and visual field) were conducted at screening, at week 18 and at two weeks after trial completion. An ECG was performed at baseline and at weeks 12 and 24.

plasma Zn = test: Phase II clinical trial: plasma zinc; assay type: in vivo, human
Procedure: as §1, §2

[2] = tested on: patients with probable AD; test: Phase II clinical trial of clioquinol: cognitive function (ADAS-Cog); assay type: in vivo, human; conditions: for increase in ADAS-Cog scores: CQ group
Procedure: On the basis of the pre-clinical data, a Phase II clinical trial was prepared of CQ for the treatment of AD. Inclusion criteria for this Phase II study targeted a region on the ADAS-cog scale (20-45) where patients are moderately demented, still living at home, but anticipating an accelerated deterioration as part of the natural history of AD, over the next 12 months. Because the primary outcome was efficacy, a triple-blind design was chosen.
Criteria for inclusion in the study were:— • (a) informed consent; • (b) a diagnosis of probable AD by NINCDS-ADRDA criteria (McKhann et al., Neurology 34: 939-944, 1984); • (c) AD Assessment Scale-Cognitive (ADAS-Cog) score of 20-45 inclusive (Rosen et al., Am. J. Psychiatry 141: 1356-1364, 1984); • (d) Mini Mental State Examination (MMSE) score of 10-24 inclusive (Folstein et al., J. Psychiatr. Res. 12: 189-198, 1975); • (e) on donepezil hydrochloride 5 mg or 10 mg for at least six months; • (f) relative or carer willing and able to support the trial; • (g) able to complete trial examinations; and • (h) primary sensorial functions intact.
The study was a triple blind, placebo-controlled, randomized design. Thirty-six patients and their carers were recruited to participate, with patients being randomized to receive either CQ or placebo; there were 18 patients in each arm. The duration of the study was 36 weeks. CQ dosage was 125 mg twice daily from weeks 0-12, increased to 250 mg twice daily from weeks 13-24, and finally, 375 mg twice daily from weeks 25-36.
as §2, with “implemented. The Clinician's Interview Based Impression of Change (CIBIC), a subjective observational index also used in efficacy trials of acetylcholinesterase inhibitors, was conducted at baseline and at weeks 12, 24 and 36 by an independent researcher who was not part of the study team. Blood samples for measurement of plasma Aβ and plasma zinc and copper were all taken four weekly, by antecubital fossa venepuncture.” for “implemented.”

[3] = Safety measures / adverse event reporting in the Phase II trial; assay type: in vivo, human
Procedure: as §3

plasma Cu = test: Phase II clinical trial: plasma copper; assay type: in vivo, human; conditions: administration of CQ vs placebo
Procedure: as §1, §2

Oc1c(I)cc(Cl)c2cccnc12 [CQ, iodochlorhydroxyquin]
change in plasma Aβ42 (plasma Aβ42; CQ-treated group, lowering from week 20 onwards, placebo increased): declined; also recorded: very significant lowering
plasma Aβ42 changes by severity (plasma Aβ42; less-severely affected individuals compared with more-severely affected): more evident
plasma Aβ40 levels (plasma Aβ40; compared with Aβ42 trends, CQ vs placebo): overall similar trends
plasma Aβ40, placebo vs CQ groups (plasma Aβ40; weeks 8, 32 and 36, less-severely affected groups): significant differences
effect on Aβ deposits in transgenic mice (Aβ accumulation; 30 mg/kg body weight by gavage (Cherny et al., 2001)): effective
inhibiting Aβ accumulation in transgenic mice (Aβ accumulation; 20-30 mg/kg orally daily, five days per week, two to three months): markedly effective
calf latency (baseline)-calf latency (week 20), Mean within-group change ([1]; Pair 1, paired difference, unit assumed): 0.575 ms
calf latency (baseline)-calf latency (week 36), Mean within-group change ([1]; Pair 2, paired difference, in ms (unit assumed)): .7937
wrist 1 latency week 1-wrist 1 latency week 20, Mean within-group change ([1]; Pair 3, paired difference, in ms (unit assumed)): .5824
wrist 1 latency week 1-wrist 1 latency week 36, Mean within-group change ([1]; Pair 4, paired difference, in ms (unit assumed)): .7875
wrist 2 latency week 1-wrist 2 latency week 20, Mean within-group change ([1]; Pair 5, paired difference, in ms (unit assumed)): 1.000E−01
wrist 2 latency week 1-wrist 2 latency week 36, Mean within-group change ([1]; Pair 6, paired difference, in ms (unit assumed)): .2429
between group differences in nerve conduction parameters ([1]; detailed analyses, to week 36): no significant between group differences
risk of displaying abnormal nerve conduction ([1]; subjects on CQ vs placebo): increased risk
rise of plasma Zn levels (plasma Zn; CQ, Phase II trial): 30%
total plasma Zn (plasma Zn; administration of CQ vs placebo): significant elevation
increase in ADAS-Cog scores ([2]; less-severely affected patients): only small increases
increase in ADAS-Cog scores ([2]; more severely-affected patients): negligible increase
effect of treatment on ADAS-Cog ([2]; more-severely affected group (baseline ADAS-Cog≧25), CQ vs placebo): statistically significant; also recorded: significant effect on preventing cognitive decline
primary clinical outcome of efficacy, ADAS-Cog change from baseline ([2]; whole cohort, CQ vs placebo, 36 weeks, on donepezil): trend
overall safety and tolerability ([3]; 36 weeks, 250-750 mg/day): safe and well tolerated
non-attributable serious adverse event (hospitalization) ([3]; CQ arm): syncope due to impaired cardiac function
albumin ([3]; CQ arm, group LFT changes): fell significantly
γ-GT, AST, ALT and bilirubin ([3]; CQ arm, group LFT changes): small significant elevation
reduction in haemoglobin ([3]; CQ arm, week 24, p=0.003): 6.88 g/L
reduction in haemoglobin ([3]; CQ arm, week 36, p=0.03): 5.5 g/L
adverse haematological events ([3]; CQ-treated subjects): no adverse haematological events
risk of impairment in visual acuity, colour vision, visual fields or fundoscopic abnormalities ([3]; between the two arms, McNemar's test): no significant differences
overt symptoms or signs of impaired liver function ([3]; changes at week 24 returning to normal by week 36): No subject developed any overt symptoms or signs of impaired liver function
likelihood of changes in liver function tests (LFT) ([3]; patients on CQ vs placebo): more likely
likelihood to develop diarrhoea ([3]; patients on CQ vs placebo): less likely
Abdominal pain, subjects ([3]; treatment arm n = 18): 2
Constipation, subjects ([3]; treatment arm n = 18): 2
Decreased vitamin B12, subjects ([3]; treatment arm n = 18): 0
Diarrhoea, subjects ([3]; treatment arm n = 18): 1
Impaired nerve conduction, subjects ([3]; treatment arm n = 18): 3
Impaired reflexes, subjects ([3]; treatment arm n = 18): 1
Lymphopoenia, subjects ([3]; treatment arm n = 18): 0
Microalbuminurea, subjects ([3]; treatment arm n = 18): 5
Nausea, subjects ([3]; treatment arm n = 18): 2
Numb legs, subjects ([3]; treatment arm n = 18): 2
Postural Dizziness, subjects ([3]; treatment arm n = 18): 7
Postural Hypotension, subjects ([3]; treatment arm n = 18): 12
Postural Tachyardia, subjects ([3]; treatment arm n = 18): 12
Raised bilirubin, subjects ([3]; treatment arm n = 18): 2
Raised γGT, subjects ([3]; treatment arm n = 18): 2
Subjects with +1 postural symptom ([3]; treatment arm n = 18): 13
Subjects with =1 GI symptom ([3]; treatment arm n = 18): 5
Subjects with =1 abnormal LFT ([3]; treatment arm n = 18): 4
Subjects with =1 neurological symptom ([3]; treatment arm n = 18): 6
Mean number discrete Adverse Events Per subject ([3]; treatment arm, 61/18): 3.38
number of attributable events reported ([3]; treatment group, n = 18): 61
Abdominal pain, Relative Risk ([3]; treatment vs placebo): 2.0
Diarrhoea, Relative Risk ([3]; treatment vs placebo): 0.25
Impaired nerve conduction, Relative Risk ([3]; treatment vs placebo): 3.0
Impaired reflexes, Relative Risk ([3]; treatment vs placebo): 0.5
Microalbuminurea, Relative Risk ([3]; treatment vs placebo): 1.00
Postural Dizziness, Relative Risk ([3]; treatment vs placebo): 2.33
Postural Hypotension, Relative Risk ([3]; treatment vs placebo): 1.09
Raised γGT, Relative Risk ([3]; treatment vs placebo): 2.0
Subjects with +1 postural symptom, Relative Risk ([3]; treatment vs placebo): 0.93
Subjects with =1 GI symptom, Relative Risk ([3]; treatment vs placebo): 1.25
Subjects with =1 abnormal LFT, Relative Risk ([3]; treatment vs placebo): 4.0
Subjects with =1 neurological symptom, Relative Risk ([3]; treatment vs placebo): 1.5
Mean number discrete Adverse Events Per subject, Mean diff ([3]; treatment vs placebo, p = 0.327): 0.611
plasma Cu (plasma Cu): no effect

Reference: patent publication US20070037848A1, “Treatment of neurological conditions” (priority 2003, published 2007)
